Like-named read-outs stand apart in the source and are kept apart here.
How the values were obtained:
Rat α6/3β2β3 = target: T1, Rat α6/3β2β3 (Rattus norvegicus, UniProt P04757+P12390+P12391+P43143); test: Voltage clamp of Xenopus oocytes expressing α6/3 chimera with β2 and β3; assay type: cell-based
T1 construct: evaluation of the effects of the α6 extracellular domain; remainder of rat α3 subunit (transmembrane and intracellular part); expressed in transfected cells; host or cells: Xenopus laevis oocytes injected with subunit cRNAs; α6/3 clone from Michael McIntosh (University of Utah), corrected in house by QuickChange
T1 sequence (P43143+P04757 fused with the stated changes): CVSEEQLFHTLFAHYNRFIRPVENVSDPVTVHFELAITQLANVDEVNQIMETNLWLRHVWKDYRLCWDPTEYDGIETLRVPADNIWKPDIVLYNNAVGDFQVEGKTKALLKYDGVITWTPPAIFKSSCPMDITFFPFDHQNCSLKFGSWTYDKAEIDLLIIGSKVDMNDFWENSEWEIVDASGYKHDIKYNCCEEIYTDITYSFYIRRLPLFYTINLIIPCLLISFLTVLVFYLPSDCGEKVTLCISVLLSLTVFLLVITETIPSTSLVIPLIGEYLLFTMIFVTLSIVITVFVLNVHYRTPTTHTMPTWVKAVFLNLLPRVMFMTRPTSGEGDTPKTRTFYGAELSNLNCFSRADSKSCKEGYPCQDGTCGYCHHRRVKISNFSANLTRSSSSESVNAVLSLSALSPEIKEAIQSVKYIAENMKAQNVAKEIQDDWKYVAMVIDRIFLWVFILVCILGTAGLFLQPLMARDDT
T1 sequence (P12390 25-500): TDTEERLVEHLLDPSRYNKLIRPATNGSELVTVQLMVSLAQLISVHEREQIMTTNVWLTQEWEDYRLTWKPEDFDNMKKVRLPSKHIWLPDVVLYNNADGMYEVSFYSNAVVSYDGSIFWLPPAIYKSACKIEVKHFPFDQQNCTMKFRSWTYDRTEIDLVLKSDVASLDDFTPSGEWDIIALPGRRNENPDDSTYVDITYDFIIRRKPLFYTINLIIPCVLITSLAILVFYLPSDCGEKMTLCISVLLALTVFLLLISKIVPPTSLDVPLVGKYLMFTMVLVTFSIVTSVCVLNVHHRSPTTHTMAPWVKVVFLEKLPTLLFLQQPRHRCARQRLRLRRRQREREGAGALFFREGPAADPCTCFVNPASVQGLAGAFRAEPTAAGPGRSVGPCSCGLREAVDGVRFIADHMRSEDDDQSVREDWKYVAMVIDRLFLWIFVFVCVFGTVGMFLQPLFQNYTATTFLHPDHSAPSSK
T1 sequence (P12391 31-464): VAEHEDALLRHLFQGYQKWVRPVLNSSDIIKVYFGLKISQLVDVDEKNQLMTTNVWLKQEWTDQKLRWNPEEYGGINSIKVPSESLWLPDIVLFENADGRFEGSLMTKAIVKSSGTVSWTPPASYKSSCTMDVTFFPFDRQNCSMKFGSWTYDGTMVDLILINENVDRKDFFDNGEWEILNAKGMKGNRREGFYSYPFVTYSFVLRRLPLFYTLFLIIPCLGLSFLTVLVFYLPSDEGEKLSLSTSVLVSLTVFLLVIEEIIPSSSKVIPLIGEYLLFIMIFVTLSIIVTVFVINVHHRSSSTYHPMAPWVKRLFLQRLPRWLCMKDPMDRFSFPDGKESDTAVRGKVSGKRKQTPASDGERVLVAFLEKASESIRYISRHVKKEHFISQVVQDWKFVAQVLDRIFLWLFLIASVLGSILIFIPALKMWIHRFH
Protocol: (§1) Mature (>9 cm) female Xenopus laevis African frogs (NASCO, Ft. Atkinson, Wis.) were used as a source of oocytes. Prior to surgery, frogs were anesthetized by placing the animal in a 1.5 g/l solution of MS222 (3-aminobenzoic acid ethyl ester) for 30 minutes. Oocytes were removed from an incision made in the abdomen.
(§2) In order to remove the follicular cell layer, harvested oocytes were treated with 1.25 mg/ml collagenase from Worthington Biochemical Corporation (Freehold, N.J.) for 2 hours at room temperature in calcium-free Barth's solution (88 mM NaCl, 10 mM HEPES pH 7.6, 0.33 mM MgSO4, 0.1 mg/ml gentamicin sulfate). Subsequently, stage 5 oocytes were isolated and injected with 50 nl (5-20 ng) each of the appropriate subunit cRNAs. Recordings were made 2 to 15 days after injection.
(§3) Rat neuronal nAChR clones and mouse muscle nAChR cDNA clones were used. The wild-type clones were obtained from Dr. Jim Boulter (UCLA). The rat α6/3 (Dowell et al. J Neurosci, 2003, 23:8445-8452) clone was obtained from Michael McIntosh (University of Utah) and expressed in Xenopus oocytes in combinations with rat β2 and β3. […] The TM2 domain is understood to line the pore of the channel, with alpha helix structure. The 7′ position may actually be directed away from the actual pore lining, but this residue is highly conserved in all of the nAChR. It is valine in all of them except α9 (isoleucine) and β1, where it is alanine. The TM2 mutation in the α6/3 chimera was corrected by using QuickChange (Stratagene) according to their protocols. The corrected α6/3 chimera sequence was confirmed by restriction diagnostics and by automated fluorescent sequencing (University of Florida core facility). The corrected clone was expressed as above in Xenopus oocytes with β2 and β3 and compared to the wild-type α3 co-expressed with β2 and β3.
(§4) After linearization and purification of cloned cDNAs, RNA transcripts were prepared in vitro using the appropriate mMessage mMachine kit from Ambion Inc. (Austin, Tex.).
(§5) Electrophysiology. The majority of experiments were conducted using OpusXpress 6000A (Axon Instruments, Union City Calif.). OpusXpress is an integrated system that provides automated impalement and voltage clamp of up to eight oocytes in parallel. Cells were automatically perfused with bath solution, and agonist solutions were delivered from a 96-well plate. Both the voltage and current electrodes were filled with 3 M KCl. The agonist solutions were applied via disposable tips, which eliminated any possibility of cross-contamination. Drug applications alternated between ACh controls and experimental applications. Flow rates were set at 2 ml/min for experiments with α7 receptors and 4 ml/min for other subtypes. Cells were voltage-clamped at a holding potential of −60 mV. Data were collected at 50 Hz and filtered at 20 Hz. Agonist applications were 12 seconds in duration followed by 181-second washout periods for α7 receptors and 8 seconds with 241-second wash periods for other subtypes. For some experiments, particularly under conditions where residual inhibition precluded making repeated measurements from single cells (see below), manual oocyte recordings were made as previously described (Papke and Papke Br J of Pharmacol, 2002, 137:49-61). In brief, Warner Instruments (Hamden, Conn.) OC-725C oocyte amplifiers were used, and data were acquired with a minidigi or digidata 1200A with pClamp9 software (Axon Instruments). Sampling rates were between 10 and 20 Hz and the data were filtered at 6 Hz. […]

rats = test: Nicotine drug discrimination in rats; assay type: in vivo
Protocol: Animals. Male ICR mice (20-25 g) obtained from Harlan Laboratories (Indianapolis, Ind.) were used throughout the study. Animals were housed in groups of six and had free access to food and water. Adult, male Long-Evans rats (350-460 g), obtained from Harlan (Dublin, Va.), were individually housed in a temperature-controlled (20-22° C.) environment with a 12-hour light-dark cycle (lights on at 7 a.m.). Rats were maintained within the indicated weight range by restricted post-session feeding and had ad libitum water in their home cages. Rats were drug-naive at the beginning of the study. Animals were housed in an AALAC approved facility and the study was approved by the Institutional Animal Care and Use Committee of Virginia Commonwealth University.
Statistical analysis. Statistical analysis of all analgesic and in vivo studies was performed using either t-test or analysis of variance (ANOVA) with Tukey's test post hoc test when appropriate. All differences were considered significant at p<0.05. AD50 values with 95% CL for behavioral data were calculated by unweighted least-squares linear regression as described by Tallarida and Murray (Tallarida and Murray Manual of Pharmacological Calculations with Computer Programs. 1987, Springer-Verlag, New York).

Rat α3β4β3 [1] = target: T2, Rat α3β4β3 (Rattus norvegicus, UniProt P04757+P12391+P12392); test: Voltage clamp of Xenopus oocytes expressing α3β4β3 nAChR; assay type: cell-based; set-up: expressed in transfected cells; host or cells: Xenopus laevis oocytes injected with subunit cRNAs; clones from Dr. Jim Boulter (UCLA)
T2 sequence (P04757 26-499): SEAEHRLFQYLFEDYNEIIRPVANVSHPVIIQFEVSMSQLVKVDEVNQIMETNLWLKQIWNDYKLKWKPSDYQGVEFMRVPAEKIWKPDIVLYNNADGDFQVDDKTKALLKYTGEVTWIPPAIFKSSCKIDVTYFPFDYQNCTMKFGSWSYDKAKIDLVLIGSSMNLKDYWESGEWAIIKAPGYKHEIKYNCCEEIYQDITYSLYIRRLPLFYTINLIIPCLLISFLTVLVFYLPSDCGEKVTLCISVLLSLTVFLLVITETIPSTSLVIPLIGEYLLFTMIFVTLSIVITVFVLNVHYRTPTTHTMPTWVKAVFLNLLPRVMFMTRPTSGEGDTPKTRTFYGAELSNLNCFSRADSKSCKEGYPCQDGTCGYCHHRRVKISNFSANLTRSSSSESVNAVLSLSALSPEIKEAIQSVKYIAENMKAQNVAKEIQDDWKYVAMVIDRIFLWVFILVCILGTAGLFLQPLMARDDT
T2 sequence (P12392 21-495): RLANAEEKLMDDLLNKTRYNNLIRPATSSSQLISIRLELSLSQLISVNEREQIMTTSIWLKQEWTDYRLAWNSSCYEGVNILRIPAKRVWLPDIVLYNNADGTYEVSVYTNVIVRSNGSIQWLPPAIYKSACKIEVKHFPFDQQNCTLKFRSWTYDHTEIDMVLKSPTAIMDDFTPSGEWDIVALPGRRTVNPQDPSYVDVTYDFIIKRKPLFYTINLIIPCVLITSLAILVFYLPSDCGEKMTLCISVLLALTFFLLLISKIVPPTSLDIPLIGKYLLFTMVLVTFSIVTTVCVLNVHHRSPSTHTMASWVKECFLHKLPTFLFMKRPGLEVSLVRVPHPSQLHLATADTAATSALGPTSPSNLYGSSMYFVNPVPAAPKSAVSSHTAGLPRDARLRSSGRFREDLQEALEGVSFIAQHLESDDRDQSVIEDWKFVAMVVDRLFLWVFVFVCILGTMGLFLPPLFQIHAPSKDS
T2 sequence (P12391 31-464): as the sequence (P12391 31-464) above
Protocol: as §1, §2, §3, §4, §5

Rat α3β4β3 [2] = target: T2, Rat α3β4β3; test: as above; assay type: cell-based; set-up: Rat neuronal nAChR clones and mouse muscle nAChR cDNA clones were used; The wild-type clones were obtained from Dr. Jim Boulter (UCLA)
Protocol: as §1, §2
Rat neuronal nAChR clones and mouse muscle nAChR cDNA clones were used. The wild-type clones were obtained from Dr. Jim Boulter (UCLA). The rat α6/3 (Dowell et al. J Neurosci, 2003, 23:8445-8452) clone was obtained from Michael McIntosh (University of Utah) and expressed in Xenopus oocytes in combinations with rat β2 and β3. […] The TM2 domain is understood to line the pore of the channel, with alpha helix structure. […] The corrected clone was expressed as above in Xenopus oocytes with β2 and β3 and compared to the wild-type α3 co-expressed with β2 and β3. […]

[3] = decrease in net charge, 100 μM ACh co-applied with TMPH, read-out: IC50 (area)
[4] = decrease in peak current amplitude, 100 μM ACh co-applied with TMPH, read-out: IC50 (peak)

Work on `CCCCCCC(=O)OC1CC(C)(C)NC(C)(C)C1` [TMPH, 2,2,6,6-tetramethylpiperidin-4-yl heptanoate] yielded an IC50 (Rat α6/3β2β3; [3]) of 1 ± 0.3 µM, an IC50 (Rat α6/3β2β3; [4]) of 60 ± 20 µM and an IC50 (Rat α6/3β2β3; inhibition still present after 5-minute wash, read-out: IC50 (recovery)) of 2.3 ± 0.5 µM. For the same compound, the “IC50 net charge/IC50 peak” value (Rat α6/3β2β3; ratio) was “.017”, the “IC50 recovery/IC50 net charge” value (Rat α6/3β2β3; ratio) was 2.0 and the “effect of TMPH-nicotine combination on response rates” value (rats; compared to vehicle, any dose combination tested, p>0.05) was “did not alter response rates”. For the same compound, the “nicotine-lever responding by TMPH alone” value (rats; doses at which antagonism was observed (data not shown)) was “did not produce nicotine-lever responding”, the IC50 (Rat α3β4β3 [1]; [3]) was 1.4 ± 0.2 µM and the IC50 (Rat α3β4β3 [1]; [4]) was 1.9 ± 0.2 µM. The IC50 (Rat α3β4β3 [1]; inhibition still present after 5-minute wash, read-out: IC50 (recovery), 2 site model, site with 85% of the fit) was 30 µM, the “IC50 net charge/IC50 peak” value (Rat α3β4β3 [1]; ratio) was 0.74 and the “IC50 recovery/IC50 net charge, 2-site model, second value” (Rat α3β4β3 [1]; ratio, recovery site of IC50 30 μM) was 21. The IC50 (Rat α3β4β3 [2]; inhibition still present after 5-minute wash, read-out: IC50 (recovery), 2 site model, site with approximately 15% of the fit) was 1 µM and the “IC50 recovery/IC50 net charge, 2-site model, first value” (Rat α3β4β3 [2]; ratio, recovery site of IC50 1.0 μM) was 0.7.
